Results on 19 compounds are retold here after patent publication US20080194637A1, “Small organic molecule regulators of cell proliferation” (Curis, Inc., priority 2006, published 2008).

Each structure is given as a SMILES string. Counter-ions that a name gives are not always drawn. Like-named read-outs stand apart in the source and are kept apart here.

Format in all cases: cell-based
Assay [1] concerns sonic hedgehog pathway, Daoy human medulloblastoma cells. Nature of the assay: Human hedgehog reporter assay Daoy-GliLuc (DGL). Particulars: gli-luciferase reporter, read-out: Daoy Avg. EC50. From the text: (§1) Mouse (TM3: mouse Leydig cells; S12: mouse embryonic mesenchymal cells) and human (Daoy: human medulloblastoma cell; HepM: human embryonic palatal mesenchymal cell) cell lines are used to screen small molecules for their ability to modulate the activity of the sonic hedgehog pathway (Table 1, Table 2, and Table 3). Stable hedgehog pathway reporter cell lines are established by specific antibiotic selection following transfection of a reporter plasmid containing a luciferase gene located directly downstream from the gli promoter. Consequently, any observable changes in cellular luciferase activity may be attributed to changes in sonic hedgehog pathway activity in mouse and human cells, respectively, since gli is the major by-product of this pathway. To calculate activity, we generate an eleven point dose curve for each compound using 1:3 dilutions in 96 well assay plates. Each plate tested also contains low and high control to establish maximal pathway activation so to establish/compare a percentage activation of each tested compound (AMAX) on respective plates. Also we calculate EC50 values, or a concentration where the pathway will be exactly 50% activated, for each tested compound to determine potency. In these cell lines, compounds that register >20% AMAX values are considered active.
(§2) Stable hedgehog pathway reporter cell lines are established following specific antibiotic selection following transfection of a reporter plasmid In short, typically cells are plated in MicroTiter-plates at 10,000-20,000 cells per well, in growth media (containing 10%-20% FBS). After 48-72 hrs (HGL and DGL respectively) the media in the assay plates is switched to low-serum containing media (0.5% FBS). At that time compounds are added (at 1-5 μM) to the assay plates, in the presence or absence of hedgehog protein (octyl-modified version; 1-5 ng/ml). After another 24 hrs of incubation, the media from the assay plates is discarded and replaced with luciferase assay-mix. Subsequently, plates are incubated at RT for ˜15-30 mins and then read in a luminometer. [note: addition of the Hedgehog protein, although not critical, will sensitize the assay allowing the identification of weak actives].

Assay [2] deals with sonic hedgehog pathway, TM3 mouse Leydig cells. Nature of the assay: Hedgehog pathway Gli-luciferase reporter assay in TM3 cells.
Source text: as §1, §2

Assay [3] has as its system sonic hedgehog pathway, HepM human embryonic palatal mesenchymal cells. Description: Human hedgehog reporter assay HEPM-GliLuc (HGL). Particulars: gli-luciferase reporter.
Source text: as §1, §2

Setting [4] is: Daoy human medulloblastoma cells, Table 1.
Setting [5] is: HepM human embryonic palatal mesenchymal cells, Table 1.

Turning to `CCOc1ccc(-c2ccc(OC)cc2)cc1CN(C(=O)c1sc2ccccc2c1Cl)[C@H]1CC[C@@H](NC)CC1` [Compound 312, 3-Chloro-benzo[b]thiophene-2-carboxylic acid (4-ethoxy-4′-methoxy-biphenyl-3-ylmethyl)-(4-methylamino-cyclohexyl)-amide hydrochloride], in assay [1] (setting [4]), the EC50 was 50 to 250 nM.

Regarding `CN[C@H]1CC[C@H](N(Cc2cc(-c3ccc(C(O)C(F)(F)F)cc3)ccc2F)C(=O)c2sc3ccccc3c2Cl)CC1` (stereo partly drawn) [Compound 433, 3-Chloro-benzo[b]thiophene-2-carboxylic acid [4-fluoro-4′-(2,2,2-trifluoro-1-hydroxy-ethyl)-biphenyl-3-ylmethyl]-(4-methylamino-cyclohexyl)-amide hydrochloride], the EC50 is below 50 nM in assay [2] (Table 3) and below 50 nM in assay [1] (Daoy human cells, Table 3).

As to `CN[C@H]1CC[C@@H](N(Cc2cc(-c3ccc(C#N)cc3)ccc2OC)C(=O)c2sc3cccc(F)c3c2Cl)CC1` [Compound 366, 3-Chloro-4-fluoro-benzo[b]thiophene-2-carboxylic acid (4′-cyano-4-methoxy-biphenyl-3-ylmethyl)-(4-methylamino-cyclohexyl)-amide hydrochloride], the EC50 in assay [2] (Table 1) and in assay [1] (setting [4]) was below 50 nM each time.

In the case of `CCOc1ccc(-c2ccc(C(F)(F)F)cc2)cc1CN(C(=O)c1sc2ccccc2c1Cl)[C@H]1CC[C@@H](NC)CC1` [Compound 309, 3-Chloro-benzo[b]thiophene-2-carboxylic acid (4-ethoxy-4′-trifluoromethyl-biphenyl-3-ylmethyl)-(4-methylamino-cyclohexyl)-amide hydrochloride], the EC50 in assay [2] (Table 1) is 50 to 250 nM; in assay [1] (setting [4]) it was below 50 nM.

For `CCOc1ccc(-c2cncnc2)cc1CN(C(=O)c1sc2ccccc2c1Cl)[C@H]1CC[C@@H](NC)CC1` [Compound 326, 3-Chloro-benzo[b]thiophene-2-carboxylic acid (2-ethoxy-5-pyrimidin-5-yl-benzyl)-(4-methylamino-cyclohexyl)-amide dihydrochloride], the results for the EC50 in assay [2] (Table 1), in assay [3] (setting [5]) and in assay [1] (setting [4]) were 50 to 250 nM, 50 to 250 nM and below 50 nM, respectively.

With `CN[C@H]1CC[C@@H](N(Cc2cc(-c3ccc(C)nc3)ccc2OC)C(=O)c2sc3ccccc3c2Cl)CC1` [Compound 320, 3-Chloro-benzo[b]thiophene-2-carboxylic acid [2-methoxy-5-(6-methyl-pyridin-3-yl)-benzyl]-(4-methylamino-cyclohexyl)-amide dihydrochloride], the concentration for a half-maximal effect (EC50) in assay [2] (Table 1) and in assay [3] (setting [5]) was below 50 nM each time.

As for `CN[C@H]1CC[C@@H](N(Cc2cc(-c3ccc(S(C)(=O)=O)cc3)ccc2OC)C(=O)c2sc3ccccc3c2Cl)CC1` [Compound R7, 3-Chloro-benzo[b]thiophene-2-carboxylic acid (4′-methanesulfonyl-4-methoxy-biphenyl-3-ylmethyl)-(4-methylamino-cyclohexyl)-amide hydrochloride], the half-maximal effective concentration (EC50) in assay [2] (Table 1) and in assay [3] (setting [5]) was below 50 nM in each case.

For the compound `CNC(=O)c1cc(-c2ccc(OC)c(CN(C(=O)c3sc4c(F)ccc(F)c4c3Cl)[C@H]3CC[C@H](NC)CC3)c2)ccn1` [356 (R21), 4-(3-{([(3-Chloro-4,7-difluoro-benzo[b]thiophene-2-carbonyl)-(4-methylamino-cyclohexyl)-amino]-methyl}-4-methoxy-phenyl)-pyridine-2-carboxylic acid methylamidedihydrochloride], the 50% effective concentration (EC50) in assay [2] (Table 1), in assay [3] (setting [5]) and in assay [1] (setting [4]) was below 50 nM in each case.

In the case of `CN[C@H]1CC[C@@H](N(Cc2cc(-c3ccnc(C(=O)O)c3)ccc2OC)C(=O)c2sc3c(F)ccc(F)c3c2Cl)CC1` [Compound R6, 4-(3-{[(3-Chloro-4,7-difluoro-benzo[b]thiophene-2-carbonyl)-(4-methylamino-cyclohexyl)-amino]-methyl}-4-methoxy-phenyl)-pyridine-2-carboxylic acid bis(trifluoroacetate)], the EC50 in assay [2] (Table 1) and in assay [3] (setting [5]) was 50 to 250 nM each time.

For the compound `CN[C@H]1CC[C@@H](N(Cc2cc(-c3ccc(CCl)cc3)ccc2OC)C(=O)c2sc3ccccc3c2Cl)CC1` [Compound 340, 3-Chloro-benzo[b]thiophene-2-carboxylic acid (4′-chloromethyl-4-methoxy-biphenyl-3-ylmethyl)-(4-methylamino-cyclohexyl)-amide hydrochloride], the 50% effective concentration (EC50) in assay [2] (Table 1), in assay [3] (setting [5]) and in assay [1] (setting [4]) was below 50 nM in each case.

Turning to `CN[C@H]1CC[C@@H](N(Cc2cc(-c3cccc(C(C)=O)c3)ccc2OC)C(=O)c2sc3c(F)ccc(F)c3c2Cl)CC1` [Compound 364, 3-Chloro-4,7-difluoro-benzo[b]thiophene-2-carboxylic acid (3′-acetyl-4-methoxy-biphenyl-3-ylmethyl)-(4-methylamino-cyclohexyl)-amide hydrochloride], the EC50 in assay [2] (Table 1) and in assay [3] (setting [5]) was below 50 nM each time.

With `CN[C@H]1CC[C@H](N(Cc2cc(-c3ccc(N)nc3C)ccc2OC)C(=O)c2sc3ccccc3c2Cl)CC1` [Compound 398, 3-Chloro-benzo[b]thiophene-2-carboxylic acid [5-(6-amino-2-methyl-pyridin-3-yl)-2-methoxy-benzyl]-(4-methylamino-cyclohexyl)-amide dihydrochloride], the half-maximal effective concentration (EC50) lay within 1000 to 2500 nM in assay [2] (Table 3); 1000 to 2500 nM in assay [3] (HepM human cells, Table 3); 250 to 1000 nM in assay [1] (Daoy human cells, Table 3).

Regarding `CN[C@H]1CC[C@@H](N(Cc2cc(-c3cccc(C#N)c3)ccc2OC)C(=O)c2sc3ccccc3c2Cl)CC1` [Compound 304, 3-Chloro-benzo[b]thiophene-2-carboxylic acid (3′-cyano-4-methoxy-biphenyl-3-ylmethyl)-(4-methylamino-cyclohexyl)-amide hydrochloride], the 50% effective concentration (EC50) in assay [2] (Table 1), in assay [3] (setting [5]) and in assay [1] (setting [4]) was below 50 nM in each case.

Regarding `CN[C@H]1CC[C@@H](N(Cc2cc(-c3cccc(C#N)c3)ccc2OC)C(=O)c2sc3cccc(F)c3c2Cl)CC1` [Compound 365, 3-Chloro-4-fluoro-benzo[b]thiophene-2-carboxylic acid (3′-cyano-4-methoxy-biphenyl-3-ylmethyl)-(4-methylamino-cyclohexyl)-amide hydrochloride], the concentration for a half-maximal effect (EC50) in assay [2] (Table 1) and in assay [1] (setting [4]) was below 50 nM in each case.

For `CN[C@H]1CC[C@@H](N(Cc2cc(-c3ccc(OC(F)(F)F)cc3)ccc2OC)C(=O)c2sc3ccccc3c2Cl)CC1` [Compound 307, 3-Chloro-benzo[b]thiophene-2-carboxylic acid (4-methoxy-4′-trifluoromethoxy-biphenyl-3-ylmethyl)-(4-methylamino-cyclohexyl)-amide hydrochloride], the EC50 in assay [2] (Table 1) and in assay [1] (setting [4]) was below 50 nM throughout.

For the compound `CN[C@H]1CC[C@@H](N(Cc2cc(-c3cnc(N(C)C)nc3)ccc2OC)C(=O)c2sc3ccccc3c2Cl)CC1` [Compound 321, 3-Chloro-benzo[b]thiophene-2-carboxylic acid [5-(2-dimethylamino-pyrimidin-5-yl)-2-methoxy-benzyl]-(4-methylamino-cyclohexyl)-amide dihydrochloride], the figures for the EC50 in assay [2] (Table 1) and in assay [1] (setting [4]) were 1000 to 2500 nM and 50 to 250 nM, respectively.

In the case of `CN[C@H]1CC[C@@H](N(Cc2cc(-c3cccc(C#N)c3)ccc2OC)C(=O)c2sc3c(F)ccc(F)c3c2Cl)CC1` [Compound 337, 3-Chloro-4,7-difluoro-benzo[b]thiophene-2-carboxylic acid (3′-cyano-4-methoxy-biphenyl-3-ylmethyl)-(4-methylamino-cyclohexyl)-amide hydrochloride], the EC50 in assay [2] (Table 1) and in assay [3] (setting [5]) was below 50 nM in each case.

With `CCOc1ccc(-c2ccccc2)cc1CN(C(=O)c1sc2ccccc2c1Cl)[C@H]1CC[C@@H](NC)CC1` [Compound 313, 3-Chloro-benzo[b]thiophene-2-carboxylic acid (4-ethoxy-biphenyl-3-ylmethyl)-(4-methylamino-cyclohexyl)-amide hydrochloride], the values for the EC50 in assay [2] (Table 1) and in assay [1] (setting [4]) were 50 to 250 nM and below 50 nM, respectively.

Consider `CN[C@H]1CC[C@@H](N(Cc2cc(-c3ccc(C#N)cc3)ccc2OC)C(=O)c2sc3c(F)ccc(F)c3c2Cl)CC1` [Compound 351, 3-Chloro-4,7-difluoro-benzo[b]thiophene-2-carboxylic acid (4′-cyano-4-methoxy-biphenyl-3-ylmethyl)-(4-methylamino-cyclohexyl)-amide hydrochloride], for which the EC50 in assay [2] (Table 1) and in assay [3] (setting [5]) was below 50 nM throughout.
